Like-named read-outs stand apart in the source and are kept apart here.
Key:
[1] = tested on: HCT-116; test: MTT cytotoxicity assay, colon cancer cells; format: cell-based, human; conditions: for IC50: Homo sapiens, HCT-116, MTT, 48 hrs incubation
Procedure: (§1) The cytotoxic activity of the compounds was tested against different mammalian cancer cells, prostate carcinoma cells (PC-3), hepatocellular carcinoma (HepG2) and colon cancer cells (HCT-116) and against African green monkey kidney cell line (Vero-B). The cell lines were obtained from American Type Culture Collection (ATCC). The cells were cultivated at 37° C. and 10% CO2 in DMEM (Lonza, 12-604F) medium supplemented with 10% fetal bovine serum (FBS, Lonza, Cat. No. 14-801E), 100 IU/ml penicillin and 100 μg/ml streptomycin (Lonza, 17-602E). Cisplatin (cis-diamineplatinum (II) dichloride) was used as a positive control and was obtained from Sigma then dissolved in 0.9% saline then stored as 8 mM stock solution at −20° C. The synthesized compounds were solubilized in DMSO and stored at −20° C. 0.5% crystal violet was prepared in Methanol and was used to stain the viable cells (Feoktistova, Geserick et al. 2016). Crystal violet binds to proteins and DNA in the adherent and viable cells so the stain is an indicator for the viability of the treated cells. The viability of the cells were quantified by using MTT reagent (3-(4,5-dimethylthiazol-2-yl)-2,5-diphenyl tetrazolium bromide), which measure the activity of mitochondrial dehydrogenase in the viable cells (Slater, Sawyer et al. 1963, Mosmann 1983).
(§2) Cytotoxicity was further assayed as follows. The cells were seeded in 96-well plate as 5*10^4 cells/mL (100 μL/well). A serial dilutions of tested compounds or cisplatin (100, 30, 10, 3.3, 1.1 or 0.37 μM) was added after overnight incubation of the cells at 37° C. and 5% CO2. DMSO was used as a control (0.1%). The cells were incubated for 48 hrs. After that, 15 μl of MTT (5 mg/mL PBS) was added to each well and incubated for another 4 hours. The formazan crystals were solubilized by 100 μL acidified SDS solution (10% SDS/0.01 M HCl). The absorbance was measured after 14 hours of incubation at 37° C. and 5% CO2 at 570 nm by Biotech plate reader. Each experiment was repeated three times and standard deviation was calculated (±). IC50% was calculated as the concentration that cause 50% inhibition for cell growth. The growth of the cells were monitored and the images were acquired by Gx microscopes (GXMGXD202 Inverted Microscope) (10× Eyepiece) after staining with crystal violet.

[2] = tested on: Vero-B; test: MTT cytotoxicity assay, normal kidney cell line; format: cell-based, African green monkey; conditions: Chlorocebus sabaeus, Vero B; Table 1; MTT, 48 hrs incubation; read-out: VERO-B (IC50% μM)
Procedure: as §1, §2

[3] = tested on: HCT-116 cells; test: Colony forming assay; format: cell-based, human; conditions: HCT-116, 2 μM (method) / 1 μM (result sentence), 10 days, vs DMSO control
Procedure: HCT-116 cells were seeded in 35 mm cell culture dish (500 cells/ml, 2 ml/dish). After overnight incubation at 37° C. and 5% CO2, the medium was replaced with fresh medium containing either DMSO or 2 μM of 4d. The dishes were returned into the incubator and watched for the formation of single colonies. After 10 days, the experiment was stopped by washing the colonies by ice-cold 1×-PBS and fixed with ice-cold methanol. The colonies were left to air dry, then stained with 0.5% crystal violet. The excess stain was washed off by tap water. The colonies were counted by Gx microscopes (GXMGXD202 Inverted Microscope) (10× Eyepiece) and images were processed by ImageJ 1.47v. The effect of compound 4d on the colony formation of colon cancer cells was evaluated by incubating the cells with 1 μM. […] This confirms the ability of compound 4d to enhance tumor suppressor activities.

[4] = tested on: HCT-116; test: Cell cycle analysis (propidium iodide flow cytometry); format: cell-based, human; conditions: HCT-116, 2 μM, 24 hours
Procedure: The cells (HCT-116) were seeded 5*10^4 cells/mL in a 6-well plate (2 mL/well) and allowed to adhere overnight at 37° C. and 5% CO2. The cells were incubated with or without 2 μM of compound 4d for 24 hours. The cells were washed twice with ice-cold 1×PBS and collected after trypsinzation. The cell pellet was washed two times with ice-cold 1×PBS and fixed with ice-cold 70% ethanol overnight at −20° C. After that, the cells were washed once with ice-cold PBS and the second wash was done with ice-cold PBS-2% FBS. The cell pellet was re-suspended in 500 μL Propidium Iodide (PI)/RNase (BD Biosciences, BDB550825) staining solution for 15 min at room temperature. The samples were incubated for 15 min in the dark and analyzed within 1 hour by BD Accuri™ C6 Plus flow cytometer. […] The arrest of the cell cycle in subG1 indicates the induction of apoptosis.

[5] = tested on: p53 in HCT-116 (wt p53) cells; test: p53 activation, p53 protein level by flow cytometry; format: cell-based, human; conditions: for shift in fluorescence (p53 antibody): 48 hours, untreated 23%
Procedure: The determination of p53 protein level by flow cytometry was applied because it measures the level in a single cell and determines the heterogeneity of expression within a population of cells. HCT-116 (wt p53) cells were seeded at 5*10^4 cells/mL density in a 6-well plate (2 ml/well). The cells were treated with 1 or 2 μM of compound 4d for 48 hrs, and the cells were collected after trypsin enzyme treatment and washed two times with ice-cold 1×PBS. The cells were fixed with 4% paraformaldehyde for fixation and permeabilization, then washed one time with 1× ice-cold PBS and one time with PBS containing 2% FBS. Then an aliquot of the cells was incubated with an anti-p53 antibody for one hour, and then washed two times with PBS. After that, the same cells were stained with PI (propidium iodide). […] In order to confirm the effect of compound 4d on the activation of p53, we incubated the colon cancer cells with 2 μM of compound 4d, and after 24 hours, the cells were stained with the antibody against p53. […] See FIGS. 6B (1 μM treatment with compound 4d for 48 hours; 52.7% shift in fluorescence) and 6C (2 μM treatment with compound 4d for 48 hours; 60.1% shift in fluorescence) compared to FIG. 6A (untreated cancer cells; 23% shift in fluorescence).

In the case of `O=C(/C=C/c1ccc(Cl)cc1Cl)[C@H]1[C@H](c2ccc(Cl)cc2Cl)[C@H]2CSCN2[C@]12C(=O)Nc1ccccc12` [Compound 4d, (3R,6′S,7′R,7a′S)-7′-(2,4-dichlorophenyl)-6′-((E)-3-(2,4-dichlorophenyl)acryloyl)-1′,6′,7′,7a′-tetrahydro-3′H-spiro[indoline-3,5′-pyrrolo[1,2-c]thiazol]-2-one], the IC50 ([1]; read-out: HCT-116 (IC50% μM)) is reported as 1.4 ± 0.6 µM, the IC50 ([1]; read-out: HCT-116 (IC50% μg/ml)) is reported as 0.8 µg/mL and the “selectivity index to the cancer cells” value ([1]; broad spectrum, cancer cells) is reported as “greater than 2”. The IC50 [2] was 5 µM, the formation of colonies [3] was “able to inhibit the formation of colonies” and the “cells arrested in G2/M” value [4] was “around 34.5%”. The “cells arrested in subG1” value [4] was ~15.5%, the “shift in fluorescence (p53 antibody)” value ([5]; HCT-116, 1 μM) was 52.7% and the “shift in fluorescence (p53 antibody)” value ([5]; HCT-116, 2 μM) was 60.1%. The “cell population positive for p53” value ([5]; colon cancer cells, 2 μM, 24 hours) was “significant increase”.

Source: patent US9822128B1, “Substituted spirooxindoles” (KING SAUD UNIVERSITY, priority 2017, dated 2017)
